Drawing on PubChem BioAssay AID1648 (Sanford-Burnham Center for Chemical Genomics, 2009), this text covers Kd for 109 compounds.

Active and inactive are the calls of the source. How the calls were made is not given here.

As usually defined, the Kd is the free concentration of one partner at which half of the binding sites on the other are occupied at equilibrium, for simple one-to-one binding.

Serine/threonine-protein kinase mTOR (Homo sapiens), sequence (P42345 2015-2114): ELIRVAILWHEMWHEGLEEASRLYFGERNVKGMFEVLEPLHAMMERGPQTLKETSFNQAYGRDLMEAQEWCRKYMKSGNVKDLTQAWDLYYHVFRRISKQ

This experiment concerns the target Serine/threonine-protein kinase mTOR (Homo sapiens) (UniProt P42345). Kind of experiment: mTOR FRB domain ligand binding – biophysical, NMR (AID 1648). Particulars: NMR binding to FRB domain, chemical shift.
For `Cc1cc(C(=O)N2CCN(c3ncccn3)CC2)c(C)o1`, the Kd is > 4 mM (inactive).
Regarding `COc1cc2c(cc1-c1cc3cc4ccoc4cc3oc1=O)OCO2`, the Kd is > 4 mM (inactive).
Next, `C=CCc1cc(C(=O)N2CCCCC2)ccc1O`: > 4 mM (inactive); `COc1c2ccoc2cc2oc(=O)ccc12`: > 4 mM (inactive).
Take `OCCCc1nc2ccccc2[nH]1`: the Kd is > 4 mM (inactive).
In the case of `CC(=O)NC(C)(C)C1CC=C(C)/C(=N\O)C1` (centres undefined), the Kd was > 4 mM (inactive).
As to `COc1ccccc1N1C(=N)SCC1=O`, the Kd is > 4 mM (inactive).
Next, `Cn1c(CO)nc2ccccc21`: > 4 mM (inactive); `Cc1ccc(/C=C/C(=O)O)cc1S(=O)(=O)NCCO`: > 4 mM (inactive); `CN1CCC(=NNC(=O)c2ccco2)CC1`: > 4 mM (inactive).
Next, `Cc1ccccc1C(=O)Nc1cccc(N)c1`: > 4 mM (inactive); `O=C(CNC(=O)c1cccs1)NC1=NCCS1`: > 4 mM (inactive); `C1CCN2C[C@@H]3C[C@H](CN4CCCC[C@@H]34)[C@H]2C1`: > 4 mM (inactive).
Consider `CN(C)c1ccc(CNn2cnnc2)cc1`, for which the Kd was > 4 mM (inactive).
`CS/C(N)=C\C(C)=O`: the Kd was > 4 mM (inactive).
Next, `Cc1ccc(CN2CCNC(=O)C2CC(=O)O)o1` (centres undefined): > 4 mM (inactive); `O=c1ccc(=O)n(CN2CCc3ccccc3C2)[nH]1`: > 4 mM (inactive); `CCOC(=O)C(C)c1n[nH]c(=O)c2ccccc12` (centres undefined): > 4 mM (inactive).
Next, `Cc1c(C(=O)OC(C)C)[nH]c2c1C(=O)CCC2`: > 4 mM (inactive).
Turning to `Cc1cc(=O)c2c(O)c(C)c(O)cc2o1`, the Kd was > 4 mM (inactive).
Turning to `Cc1ccc(C(=O)N2CCC(C(N)=O)CC2)c(Cl)c1`, the Kd is > 4 mM (inactive).
Next, `CCn1cnc(C(=O)NC)c1C(=O)NC`: > 4 mM (inactive).
For the compound `CC(=O)c1cccc(NC2=NCC(C)(C)S2)c1`, the Kd is > 4 mM (inactive).
Next, `O=c1cc(CO)oc(CN2CCCCC2)c1O`: > 4 mM (inactive); `O=C(Nc1ccc(N2CCCC2=O)cc1)c1cccc(F)c1`: > 4 mM (inactive); `O=c1cnnc(NCc2ccc(F)cc2)[nH]1`: > 4 mM (inactive).
Next, `CCOC(=O)C1=C(C)N2CCN=C2S1`: > 4 mM (inactive); `COCCn1cnc2cc(C)c(C)cc21`: > 4 mM (inactive); `COC(=O)c1c(C)cc(OC)cc1O`: > 4 mM (inactive).
Regarding `Nc1ccc(Cc2ccncc2)cc1`, the Kd is > 4 mM (inactive).
Take `NCc1ccc(-c2csnn2)cc1`: the Kd is > 4 mM (inactive).
Next, `Cc1nc(SCC(=O)c2c[nH]c3ccccc23)n[nH]1`: > 4 mM (inactive).
Next, `Cc1ncc(C(=O)O)c(-c2ccccc2)n1`: > 4 mM (inactive); `COC(=O)N1CCN(c2ccc(C(C)=O)cc2)CC1`: > 4 mM (inactive).
In the case of `COC(=O)Nc1nc2c(s1)CCCC2`, the Kd is > 4 mM (inactive).
In the case of `COC(=O)N1CCN(c2ccc(OC)cc2)CC1`, the Kd is > 4 mM (inactive).
Next, `COC(=O)Cn1c2ccccc2c2nc(C)sc21`: > 4 mM (inactive); `CC(=O)N1CCN(S(=O)(=O)c2ccccc2)CC1`: > 4 mM (inactive).
As for `CC1(C)Cc2nc3n[nH]c(N)c3cc2CO1`, the Kd is > 4 mM (inactive).
Next, `COc1ccc(-c2coc3c(OC)c(OC)cc(OC)c3c2=O)cc1`: > 4 mM (inactive); `CCCCCC1C(=O)CCC1CC(=O)OC` (centres undefined): > 4 mM (inactive).
Next, `Nc1ccc(C(=O)NCC2CCCO2)cc1` (centres undefined): > 4 mM (inactive); `CC(=O)N1CC2(C)CN(C(C)=O)CC(C)(C1)C2`: > 4 mM (inactive).
As to `CC(C)=NNC(=O)C(=O)Nc1ccc(F)cc1`, the Kd is > 4 mM (inactive).
Next, `Cc1ccc(C(=O)Nn2cnnc2)s1`: > 4 mM (inactive); `CSc1ccc(C2NC(=O)CCC2[N+](=O)[O-])cc1` (centres undefined): > 4 mM (inactive).
Consider `O=C(NN1CCOCC1)c1cccs1`, for which the Kd is > 4 mM (inactive).
Next, `O=C(O)CC1C(=O)NCCN1Cc1cccs1` (centres undefined): > 4 mM (inactive); `CC1(C)Cc2cccc(C(=O)O)c2O1`: > 4 mM (inactive); `O=C1CNc2cc(C(=O)O)ccc2N1`: > 4 mM (inactive).
Turning to `COc1ccc(C)cc1S(=O)(=O)NC1CCCC1`, the Kd is > 4 mM (inactive).
As to `OC1CCN(C(=S)NC2CC2)CC1`, the Kd was > 4 mM (inactive).
For `OCc1ccc2nonc2c1`, the Kd is > 4 mM (inactive).
Next, `CC(=O)Nc1ccc(CN2CCOCC2)cc1`: > 4 mM (inactive).
Next, `NC1=NN(c2ccccc2)C(=O)C1`: > 4 mM (inactive); `Nc1ccccc1-n1cccn1`: > 4 mM (inactive); `COc1c2c(cc3c1OCO3)C13C=C[C@H](OC)CC1N(C2)CC3O` (some centres undefined): > 4 mM (inactive).
On to `CC1(C)CN=C(Nc2nc3ccccc3s2)S1`, for which the Kd is > 4 mM (inactive).
Next, `S=C(c1ccc(N2CCOCC2)cc1)N1CCCCC1`: > 4 mM (inactive); `CNC(=S)Nc1ccc2c(c1)OCO2`: > 4 mM (inactive); `CC(=O)CC(=O)N1C(O)CC[N+]1(C)C` (centres undefined): > 4 mM (inactive).
Next, `O=C(NCc1ccncc1)c1cccc(F)c1`: > 4 mM (inactive); `O=C(O)c1cccnc1N1CCCC1`: > 4 mM (inactive); `COc1ccc(N/C(N)=N\c2nc(C)cc(C)n2)cc1`: > 4 mM (inactive).
As for `COc1cc(-c2csc(C)n2)ccc1O`, the Kd was > 4 mM (inactive).
Next, `Nc1nc(SCc2ccc3c(c2)OCO3)n[nH]1`: > 4 mM (inactive); `O=C(O)C(O)C(O)C(O)C(O)C(=O)O` (centres undefined): > 4 mM (inactive).
For `NCc1ccc(S(=O)(=O)O)cc1`, the Kd is > 4 mM (inactive).
Next, `Cc1ccc(C(=O)N2CCC(C(N)=O)CC2)cc1C`: > 4 mM (inactive); `O=C1C2C3CCC(O3)C2C(=O)N1c1cccc(F)c1` (centres undefined): > 4 mM (inactive).
Next, `Nc1nc2[nH]c(=O)c(=O)[nH]c2c(=O)[nH]1`: > 4 mM (inactive).
As to `Cc1nc2ccccc2c(=O)n1N1C(=O)CCCC1=O`, the Kd was > 4 mM (inactive).
Turning to `Nc1cccc(F)c1-c1ncon1`, the Kd was > 4 mM (inactive).
Regarding `CC(=O)Nc1cc(N2C(=O)C=CC2=O)ccc1Cl`, the Kd is > 4 mM (inactive).
Next, `COc1c2c(cc3c1OCO3)CCN(C)C2`: > 4 mM (inactive); `COc1cc(/C=C2/NC(=S)NC2=O)cc(Cl)c1O`: > 4 mM (inactive).
As for `OCn1nnn(-c2ccccc2)c1=S`, the Kd is > 4 mM (inactive).
Next, `O=C1N=c2ccccc2=C1c1sc(=S)[nH]c1O`: > 4 mM (inactive).
Take `CSc1nc(C)cc(-n2ccc(=O)[nH]c2=O)n1`: the Kd is > 4 mM (inactive).
For the compound `c1ccc2[nH]c(CCn3cncn3)nc2c1`, the Kd is > 4 mM (inactive).
Next, `CC(=O)Nc1cccc(NC(=O)c2cccnc2)c1`: > 4 mM (inactive); `O=C(NC(=S)NCc1cccnc1)c1ccco1`: > 4 mM (inactive); `O=C(O)CS(=O)(=O)c1ccccc1[N+](=O)[O-]`: > 4 mM (inactive).
Next, `COC(CC(=O)O)c1nc2ccccc2s1` (centres undefined): > 4 mM (inactive).
Next, `CC(C)(C(N)=O)/[N+]([O-])=C\c1ccccc1`: > 4 mM (inactive).
In the case of `O=C1NC(=O)/C(=C/c2ccc(O)cc2)N1`, the Kd is > 4 mM (inactive).
Next, `COc1ccc([C@H]2Oc3c(I)c(OC)cc(OC)c3C[C@@H]2O)cc1OC`: > 4 mM (inactive).
Regarding `Cc1cccc(C)c1N1C(=O)CCC1=O`, the Kd was > 4 mM (inactive).
On to `O=C(c1ccco1)N1CCn2c1nc1ccccc12`, for which the Kd was > 4 mM (inactive).
Next, `CSc1nc(NC(C)C)nc(N2CCOCC2)n1`: > 4 mM (inactive); `CCn1c(C)c(C(C)=O)c(N2CCOCC2)nc1=S`: > 4 mM (inactive).
As for `COc1ccc2cnn(-c3ccccc3)c(=O)c2c1OC`, the Kd was > 4 mM (inactive).
Next, `CC1(C)N=C2C(=[N+]1[O-])CCC/C2=N\O`: > 4 mM (inactive); `C/C=C(/C)C(=O)O[C@@H]1Cc2c(ccc3ccc(=O)oc23)OC1(C)C`: > 4 mM (inactive); `CCOC(=O)c1cc(C)[nH]n1`: > 4 mM (inactive).
As for `O=c1[nH]c(O)c(C=NC2CC2)c(=O)[nH]1`, the Kd was > 4 mM (inactive).
`O=C(Nc1nncs1)Oc1ccccc1`: the Kd was > 4 mM (inactive).
`COc1cc2c(cc1OC)C1Cc3ccc(OC)c(OC)c3CN1CC2` (centres undefined): the Kd was > 4 mM (inactive).
For `COc1ccc(NC(=O)CCCC(=O)O)c(OC)c1`, the Kd is > 4 mM (inactive).
Next, `O=C(/C=C/c1ccco1)NC1=NCCS1`: > 4 mM (inactive); `O=C1NC(=S)N/C1=C\c1cccc([N+](=O)[O-])c1`: > 4 mM (inactive); `OCc1ccc(Oc2ccccc2)nc1`: > 4 mM (inactive).
On to `O=C(NCc1ccccc1)c1ccc[n+]([O-])c1`, for which the Kd was > 4 mM (inactive).
Next, `Nc1ccc(-c2csnn2)cc1`: > 4 mM (inactive); `CC(=O)c1ccc(NC(=O)c2ocnc2C)cc1`: > 4 mM (inactive).
Consider `Cc1nc(-c2cccc(C(=O)O)c2)cs1`, for which the Kd is > 4 mM (inactive).
On to `O=C(O)CNc1ncnc2nc[nH]c12`, for which the Kd was > 4 mM (inactive).
On to `OCC1COc2ccccc2C1` (centres undefined), for which the Kd is > 4 mM (inactive).
On to `Cc1onc(-c2c(F)cccc2Cl)c1C(N)=O`, for which the Kd was > 4 mM (inactive).
